Test results as given in patent publication US20100016423A1, “USE OF DRONEDARONE FOR THE TREATMENT OF PATIENTS WITH ARRHYTHMIA AND HAVING AN INCREASE OF CREATININE LEVEL DUE TO DRONEDARONE ADMINISTRATION” (SANOFI-AVENTIS, priority 2008, published 2010).

Assays:
[1] = Br. J. Clin. Pharmac., 1993, 36, 125-127; cited from earlier work
[2] = Specific study in healthy subjects: renal handling of creatinine; type: in vivo
[3] = Clinical trials with dronedarone: serum creatinine levels; type: in vivo
Description: The instant invention therefore relates to a method of managing the risk of an increased morbidity and mortality rate in patients treated by an association of dronedarone or one of its pharmaceutically acceptable salts and of at least a compound B selected from ACE inhibitors, angiotensin II receptor antagonists and potassium sparing diuretics. Said method is performed by performing the following steps: • a) initially measuring serum creatinine levels, such as within one week after initiation of treatment with dronedarone, which provides a reference level, • b) monitoring serum creatinine levels at regular intervals during treatment of the patient by the compound B (as recommended in the labelling of compound B), • c) if the serum creatinine levels increases above the reference level, clinical judgement should be made to determine if the increase is due to dronedarone, to compound B or to another cause, • d) to help clinical judgment and evaluate if the increase is due to dronedarone, dronedarone can be temporarily interrupted.
Concerning step a) of the methods of the invention, as mentioned before, in most patients with atrial fibrillation or atrial flutter the maximal increase in creatinine levels, compared to the level before administration of dronedarone, was smaller than 30%, with a mean increase ranging from 10 to 15% or more. Then during the treatment with dronedarone, mean creatinine levels remain stable, this corresponds to a plateau.

[4] = ANDROMEDA (EFC4966) clinical trial in patients with a recent severe episode of Congestive Heart failure; type: in vivo; conditions: 400 mg BID
Description: Despite the equal distribution of treatment with ACE inhibitors/AII receptor antagonists at baseline, concomitant treatment with these drugs became unbalanced during the course of the ANDROMEDA study, as more patients in the dronedarone 400 mg BID group discontinued these treatments and fewer started them (table 2).
In the dronedarone 400 mg BID group, 14 of 41 patients who discontinued ACE/AII experienced “blood creatinine increased” or “renal impairment” adverse events, versus none among the 18 patients taking placebo in this category. This observation supports the hypothesis that an increase in serum creatinine observed in patients taking dronedarone may have led investigators to discontinue ACE/AII treatment (table 4).

In the case of `CN/C(=N/CCSCc1nc[nH]c1C)NC#N` [cimetidine], the “tubular secretion of creatinine” value [1] is given as “decrease in the tubular secretion of creatinine”.

With `CCCCc1oc2ccc(NS(C)(=O)=O)cc2c1C(=O)c1ccc(OCCCN(CCCC)CCCC)cc1` [dronedarone, 2-n-butyl-3-[4-(3-di-n-butylaminopropoxy)benzoyl]-5-methylsulfonamido-benzofuran] the “effect on creatinine secretion at the tubular level” value [2] was “inhibition of creatinine secretion at the tubular level”, the “effect on glomerular filtration” value [2] was “no effect” and the “effect on renal blood flow” value [2] was “no effect”. The “change in serum creatinine levels of the patient” value ([3]; administration of dronedarone in clinical trials) was “slight increase”, the “return of creatinine levels to baseline after treatment discontinuation” value ([3]; after treatment discontinuation) was “within three days” and the “time of occurrence of creatinine increase after treatment initiation” value ([3]; after treatment initiation) was “within two days”. For the same molecule, the “return of creatinine to baseline after temporary interruption of dronedarone” value ([3]; demonstrated in another clinical trial) was at most 5 days, the “creatinine levels during treatment” value ([3]; during treatment) was “remained stable” and the “maximal increase in creatinine levels compared to the level before administration” value ([3]; most patients with atrial fibrillation or atrial flutter) was “smaller than 30%”. The “patients who died among those who never interrupted ACE inhibitors/AII receptor antagonists” value [4] was 4% and the “patients who discontinued ACE/AII and experienced blood creatinine increased or renal impairment adverse events” value ([4]; of 41 patients who discontinued ACE/AII) was 14 patients.

In the case of `CCCCc1oc2ccccc2c1C(=O)c1cc(I)c(OCCN(CC)CC)c(I)c1` [amiodarone], the “tubular secretion of creatinine” value [1] is listed as “decrease in the tubular secretion of creatinine”.

In the case of `COc1cc(Cc2cnc(N)nc2N)cc(OC)c1OC` [trimethoprim], the “tubular secretion of creatinine” value [1] is listed as “decrease in the tubular secretion of creatinine”.
